Legend:
[1] = molecular target: T1, human vasopressin V1a receptor (Homo sapiens, UniProt P37288); assay: Human vasopressin V1a receptor binding assay; conditions: 1321N1 cell membranes, [3H]vasopressin; read-out: Ki (nM) on hV1a cell line
In short: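 Ki values come from IC50 via Cheng-Prusoff (KD from prior Scatchard), averaged over at least two independent runs. Human V1a membranes were incubated with radioligand 60 minutes at 27° C., bound ligand collected by filtration; (Arg^8)-vasopressin at 1.2×10^−6 M defined non-specific binding.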

[2] = molecular target: T1, human vasopressin V1a receptor; assay: Functional assay on human vasopressin V1a receptor expressing cell line (intracellular Ca2+ fluorescence); type: cell-based; conditions: 1321N1 cells, (Arg8)-vasopressin at EC80; read-out: IC50 (nM) on hV1a cell line

T1 sequence (P37288 whole entry): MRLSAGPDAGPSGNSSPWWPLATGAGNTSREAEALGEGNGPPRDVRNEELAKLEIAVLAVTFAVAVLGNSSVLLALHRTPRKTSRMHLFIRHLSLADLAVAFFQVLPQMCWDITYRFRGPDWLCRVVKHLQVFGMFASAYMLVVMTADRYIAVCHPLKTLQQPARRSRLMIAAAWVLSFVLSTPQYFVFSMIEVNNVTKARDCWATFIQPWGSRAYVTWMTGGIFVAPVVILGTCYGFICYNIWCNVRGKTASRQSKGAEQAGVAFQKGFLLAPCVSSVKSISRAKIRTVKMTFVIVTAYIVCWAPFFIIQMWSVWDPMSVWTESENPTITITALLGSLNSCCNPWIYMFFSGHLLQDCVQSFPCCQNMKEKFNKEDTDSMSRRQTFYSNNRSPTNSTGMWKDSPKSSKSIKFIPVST

| SMILES | Ki [1] | IC50 [2] |
| --- | --- | --- |
| O=C(N[C@H]1Cc2cc(Cl)ccc2-n2c(nnc2[C@H]2CC[C@H](Oc3ccccn3)CC2)C1)C1CC(F)(F)C1 [Example 210, N-{(5S)-8-chloro-1-[trans-4-(pyridin-2-yloxy)cyclohexyl]-5,6-dihydro-4H-[1,2,4]triazolo[4,3-a][1]benzazepin-5-yl}-3,3-difluorocyclobutanecarboxamide] | 56 nM | 292 nM |
| C#CCOC1Cc2cc(Cl)ccc2-n2c(nnc2[C@H]2CC[C@H](Oc3ccccn3)CC2)C1 (stereo partly drawn) [Example 211, 8-chloro-5-(prop-2-yn-1-yloxy)-1-[trans-4-(pyridin-2-yloxy)cyclohexyl]-5,6-dihydro-4H-[1,2,4]triazolo[4,3-a][1]benzazepine] | 0.7 nM | 1.3 nM |
| O=C(OC1Cc2cc(Cl)ccc2-n2c(nnc2[C@H]2CC[C@H](Oc3ccccn3)CC2)C1)C1CCC(F)(F)CC1 (stereo partly drawn) [Example 212, 8-chloro-1-[trans-4-(pyridin-2-yloxy)cyclohexyl]-5,6-dihydro-4H-[1,2,4]triazolo[4,3-a][1]benzazepin-5-yl 4,4-difluorocyclohexanecarboxylate] | 2.8 nM | 34 nM |
| O=C(OC1Cc2cc(Cl)ccc2-n2c(nnc2[C@H]2CC[C@H](Oc3ccccn3)CC2)C1)C1CC(F)(F)C1 (stereo partly drawn) [Example 213, 8-chloro-1-[trans-4-(pyridin-2-yloxy)cyclohexyl]-5,6-dihydro-4H-[1,2,4]triazolo[4,3-a][1]benzazepin-5-yl 3,3-difluorocyclobutanecarboxylate] | 0.6 nM | 5.5 nM |
| O=C(N[C@H]1Cc2cc(Cl)ccc2-n2c(nnc2[C@H]2CC[C@H](Oc3ccccn3)CC2)C1)C1CCC(F)(F)CC1 [Example 214, N-{(5S)-8-chloro-1-[trans-4-(pyridin-2-yloxy)cyclohexyl]-5,6-dihydro-4H-[1,2,4]triazolo[4,3-a][1]benzazepin-5-yl}-4,4-difluorocyclohexanecarboxamide] | 66 nM | 672 nM |
| N#CCC(=O)OC1Cc2cc(Cl)ccc2-n2c(nnc2[C@H]2CC[C@H](Oc3ccccn3)CC2)C1 (stereo partly drawn) [Example 215, 8-chloro-1-[trans-4-pyridin-2-yloxy)cyclohexyl]-5,6-dihydro-4H-[1,2,4]triazolo[4,3-a][1]benzazepin-5-yl cyanoacetate] | 0.2 nM | 3.7 nM |
| CN(C)CC(=O)OC1Cc2cc(Cl)ccc2-n2c(nnc2[C@H]2CC[C@H](Oc3ccccn3)CC2)C1 (stereo partly drawn) [Example 216, 8-chloro-1-[trans-4-(pyridin-2-yloxy)cyclohexyl]-5,6-dihydro-4H-[1,2,4]triazolo[4,3-a][1]benzazepin-5-yl N,N-dimethylglycinate] | 0.7 nM | 1.5 nM |
| O=C(N[C@@H]1Cc2cc(Cl)ccc2-n2c(nnc2[C@H]2CC[C@H](Oc3ccccn3)CC2)C1)C(F)(F)F [Example 217, N-{(5R)-8-chloro-1-[trans-4-(pyridin-2-yloxy)cyclohexyl]-5,6-dihydro-4H-[1,2,4]triazolo[4,3-a][1]benzazepin-5-yl}-2,2,2-trifluoroacetamide] | 0.3 nM | 1.4 nM |
| COC1Cc2cc(Cl)ccc2-n2c(nnc2[C@H]2CC[C@@H](N3CCCC3=O)CC2)C1 (stereo partly drawn) [Example 218, 1-[cis-4-(8-chloro-5-methoxy-5,6-dihydro-H-[1,2,4]triazolo[4,3-a][1]benzazepin-1-yl)cyclohexyl]pyrrolidin-2-one] | 97 nM | 1250 nM |
| COC1Cc2cc(Cl)ccc2-n2c(nnc2[C@H]2CC[C@H](N3CCCC3=O)CC2)C1 (stereo partly drawn) [Example 219, 1-[trans-4-(8-chloro-5-methoxy-5,6-dihydro-4H-[1,2,4]triazolo[4,3-a][1]benzazepin-1-yl)cyclohexyl]pyrrolidin-2-one] | 0.2 nM | 22 nM |
| O=C(N[C@@H]1Cc2cc(Cl)ccc2-n2c(nnc2[C@H]2CC[C@H](Oc3ccccn3)CC2)C1)C1CC(F)(F)C1 [Example 220, N-{(5R)-8-chloro-1-[trans-4-(pyridin-2-yloxy)cyclohexyl]-5,6-dihydro-4H-[1,2,4]triazolo[4,3-a][1]benzazepin-5-yl}-3,3-difluorocyclobutanecarboxamide] | 0.4 nM | 2.6 nM |
| O=C(N[C@@H]1Cc2cc(Cl)ccc2-n2c(nnc2[C@H]2CC[C@H](Oc3ccccn3)CC2)C1)C1CCC(F)(F)CC1 [Example 221, N-{(5R)-8-chloro-1-[trans-4-(pyridin-2-yloxy)cyclohexyl]-5,6-dihydro-4H-[1,2,4]triazolo[4,3-a][1]benzazepin-5-yl}-4,4-difluorocyclohexanecarboxamide] | 0.9 nM | 9.8 nM |
| COC1Cc2cc(Cl)ccc2-n2c(nnc2[C@H]2CC[C@](OC)(C(F)(F)F)CC2)C1 (stereo partly drawn) [Example 222, 8-chloro-5-methoxy-1-[cis-4-methoxy-4-(trifluoromethyl)cyclohexyl]-5,6-dihydro-4H-[1,2,4]triazolo[4,3-a][1]benzazepine] | 5.8 nM | 40 nM |
| COC1Cc2cc(Cl)ccc2-n2c(nnc2[C@H]2CC[C@@](OC)(C(F)(F)F)CC2)C1 (stereo partly drawn) [Example 223, 8-chloro-5-methoxy-1-[trans-4-methoxy-4-(trifluoromethyl)cyclohexyl]-5,6-dihydro-4H-[1,2,4]triazolo[4,3-a][1]benzazepine] | 1.6 nM | 8.1 nM |

Further lines, results first:

| Ki [1] | IC50 [2] | SMILES |
| --- | --- | --- |
| 0.7 nM | 3.6 nM | FC(F)(F)CN[C@H]1Cc2cc(Cl)ccc2-n2c(nnc2[C@H]2CC[C@H](Oc3ccccn3)CC2)C1 [Example 224, (5S)-8-chloro-1-[trans-4-(pyridin-2-yloxy)cyclohexyl]-N-(2,2,2-trifluoroethyl)-5,6-dihydro-4H-[1,2,4]triazolo[4,3-a][1]benzazepin-5-amine] |
| 48 nM | 854 nM | CC1(C(=O)N[C@H]2Cc3cc(Cl)ccc3-n3c(nnc3[C@H]3CC[C@H](Oc4ccccn4)CC3)C2)COC1 [Example 225] |
| 0.5 nM | 4.2 nM | CC1(C(=O)N[C@@H]2Cc3cc(Cl)ccc3-n3c(nnc3[C@H]3CC[C@H](Oc4ccccn4)CC3)C2)COC1 [Example 226, N-{(5R)-8-chloro-1-[trans-4-(pyridin-2-yloxy)cyclohexyl]-5,6-dihydro-4H-[1,2,4]triazolo[4,3-a][1]benzazepin-5-yl}-3-methyloxetan-3-carboxamide] |
| 1 nM | 51 nM | COc1ccc(CN[C@H]2CC[C@H](c3nnc4n3-c3ccc(Cl)cc3CC3(C4)OCCO3)CC2)cc1 [Example 227, Trans-4-(8′-chloro-4′H,6′H-spiro[1,3-dioxolane-2,5′-[1,2,4]triazolo[4,3-a][1]benzazepin]-1′-yl)-N-(4-methoxybenzyl)cyclohexanamine] |
| 0.8 nM | 6.1 nM | CC(C)(C)OC(=O)NCCN[C@@H]1Cc2cc(Cl)ccc2-n2c(nnc2[C@H]2CC[C@H](Oc3ccccn3)CC2)C1 [Example 228, Tert-butyl [2-({(5R)-8-chloro-1-[trans-4-(pyridin-2-yloxy)cyclohexyl]-5,6-dihydro-4H-[1,2,4]triazolo[4,3-a][1]benzazepin-5-yl}amino)ethyl]carbamate] |
| 0.4 nM | 2.1 nM | CCO[C@]1(CC)CC[C@@H](c2nnc3n2-c2ccc(Cl)cc2CC2(C3)OCCO2)CC1 [Example 229, 8′-chloro-1′-(trans-4-ethoxy-4-ethylcyclohexyl)-4′H,6′H-spiro[1,3-dioxolane-2,5′-[1,2,4]triazolo[4,3-a][1]benzazepine]] |
| 0.7 nM | 12 nM | COc1ccc(CN(C)[C@H]2CC[C@H](c3nnc4n3-c3ccc(Cl)cc3CC3(C4)OCCO3)CC2)cc1 [Example 230, Trans-4-(8′-chloro-4′H,6′H-spiro[1,3-dioxolane-2,5′-[1,2,4]triazolo[4,3-a][1]benzazepin]-1′-yl)-N-(4-methoxybenzyl)-N-methylcyclohexanamine] |
| 1.1 nM | 5.9 nM | Clc1ccc2c(c1)CC1(Cc3nnc(C4CCN(Cc5cccnc5)C4)n3-2)OCCO1 (stereo not drawn) [Example 231, 8′-chloro-1′-[1-(pyridin-3-ylmethyl)pyrrolidin-3-yl]-4′H,6′H-spiro[1,3-dioxolane-2,5′-[1,2,4]triazolo[4,3-a][1]benzazepine]] |
| 1.3 nM | 9.2 nM | COC1Cc2cc(Cl)ccc2-n2c(nnc2N2CCN(c3ccccn3)CC2)C1 (stereo not drawn) [Example 232, 8-chloro-5-methoxy-1-[4-(pyridin-2-yl)piperazin-1-yl]-5,6-dihydro-4H-[1,2,4]triazolo[4,3-a][1]benzazepine] |
| 6.9 nM | 53 nM | CC[C@]1(OC)CC[C@H](c2nnc3n2-c2ccc(Cl)cc2CC(N(C)C)C3)CC1 (stereo partly drawn) [Example 233, 8-chloro-1-(trans-4-ethyl-4-methoxycyclohexyl)-N,N-dimethyl-5,6-dihydro-4H-[1,2,4]triazolo[4,3-a][1]benzazepin-5-amine] |
| 3.8 nM | 57 nM | CCO[C@]1(C)CC[C@@H](c2nnc3n2-c2ccc(Cl)cc2CC(N(C)C)C3)CC1 (stereo partly drawn) [Example 234, 8-chloro-1-(trans-4-ethoxy-4-methylcyclohexyl)-N,N-dimethyl-5,6-dihydro-4H-[1,2,4]triazolo[4,3-a][1]benzazepin-5-amine] |
| 0.3 nM | 22 nM | CO[C@]1(C(F)(F)F)CC[C@@H](c2nnc3n2-c2ccc(Cl)cc2CC2(C3)OCCO2)CC1 [Example 235, 8′-chloro-1′-[trans-4-methoxy-4-(trifluoromethyl)cyclohexyl]-4′H,6′H-spiro[1,3-dioxolane-2,5′-[1,2,4]triazolo[4,3-a][1]benzazepine]] |
| 0.9 nM | 4.2 nM | CO[C@]1(C(F)(F)F)CC[C@H](c2nnc3n2-c2ccc(Cl)cc2CC2(C3)OCCO2)CC1 [Example 236, 8′-chloro-1′-[cis-4-methoxy-4-(trifluoromethyl)cyclohexyl]-4′H,6′H-spiro[1,3-dioxolane-2,5′-[1,2,4]triazolo[4,3-a][1]benzazepine]] |

From patent publication US11298363B2, “Triazolobenzazepines as vasopressin V1a receptor antagonists” (RICHTER GEDEON NYRT., priority 2017, dated 2022)
